Data from patent US11040959B2, “Diprovocims: a new and potent class of TLR agonists” (The Scripps Research Institute, priority 2016, dated 2021).
Read-outs that look alike come from different tables or passages of the source.

What was measured:
[1] = tested on: differentiated human THP-1 cells; assay: stimulated release of TNF-α from differentiated human THP-1 cells (ELISA, dose-response); type: cell-based
In short: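 Human THP-1 cells were PMA-differentiated toward macrophages, and stimulated TNF-α release was measured by ELISA. EC50 values were taken from dose-response curves.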

mouse macrophages = assay: stimulated release of TNF-α from mouse macrophages; type: cell-based; details: for activity in stimulating TNF-α release from mouse macrophages (in words): tested up to 5 μM where stated
In short: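 EC50 derived from dose-response curves for stimulated TNF-α release from mouse macrophages.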

[2] = Homo sapiens, THP-1, Table 7, TNF-α release from human THP-1 cells, read-out: EC50 (nM) (THP-1)
[3] = Macrophage, Table 7, TNF-α release from mouse macrophages, read-out: EC50 (nM) (mouse)
[4] = Macrophage, table of 125-132 (one lipid side chain, R and S), mouse macrophages, read-out: EC50 (nM) (mouse)
[5] = Homo sapiens, THP-1, table of 125-132 (one lipid side chain, R and S), human THP-1 cells, read-out: EC50 (nM) (THP-1)

EC50 [1, 2] [nM]	EC50 (mouse macrophages; [3]) [nM]	EC50 (mouse macrophages; [4]) [nM]	EC50 [1, 5] [nM]	SMILES	other results
> 5000	> 5000	–	–	O=C(NCCc1ccc(F)cc1)[C@@H]1CN(C(=O)C/C=C/CC(=O)N2C[C@@H](C(=O)NCCc3ccc(F)cc3)[C@H](C(=O)NCCc3ccc(F)cc3)C2)C[C@H]1C(=O)NCCc1ccc(F)cc1 [Compound 102, (3S,3′S,4S,4′S)-1,1′-((E)-Hex-3-enedioyl)bis-(N^3,N^4-bis(4-fluorophenethyl)pyrrolidine-3,4-dicarboxamide)]	–
> 5000	> 5000	–	–	O=C(NCCc1ccc(F)cc1)[C@@H]1CN(C(=O)c2cccc(C(=O)N3C[C@@H](C(=O)NCCc4ccc(F)cc4)[C@H](C(=O)NCCc4ccc(F)cc4)C3)c2)C[C@H]1C(=O)NCCc1ccc(F)cc1 [Compound 103, (3S,3′S,4S,4′S)-1,1′-Isophthaloyl-bis-(N^3,N^4-bis(4-fluorophenethyl)pyrrolidine-3,4-dicarboxamide)]	–
> 5000	> 5000	–	–	O=C(NCCc1ccc(F)cc1)[C@@H]1CN(C(=O)c2ccc(-c3ccc(C(=O)N4C[C@@H](C(=O)NCCc5ccc(F)cc5)[C@H](C(=O)NCCc5ccc(F)cc5)C4)cc3)cc2)C[C@H]1C(=O)NCCc1ccc(F)cc1 [Compound 104, (3S,3′S,4S,4′S)-1,1′-([1,1′-Biphenyl]-4,4′-dicarbonyl)bis(N^3,N^4-bis(4-fluoro-phenethyl)-pyrrolidine-3,4-dicarboxamide)]	–
–	–	–	–	O=C(NCCc1ccc(F)cc1)C1CN(C(=O)COCC(=O)N2CC(C(=O)NCCc3ccc(F)cc3)C(C(=O)NCCc3ccc(F)cc3)C2)CC1C(=O)NCCc1ccc(F)cc1 [Compound 105, (3S,3′S,4S,4′S)-1,1′-(2,2′-Oxybis(acetyl))bis-(N^3,N^4-bis(4-fluorophenethyl)pyrrolidine-3,4-dicarboxamide)]	EC50 ([1]; Table 7, TNF-α release from human THP-1 cells, read-out: EC50 (nM) (THP-1)): > 5000 nM; EC50 (mouse macrophages; Table 7, TNF-α release from mouse macrophages, read-out: EC50 (nM) (mouse)): > 5000 nM
> 5000	> 5000	–	–	O=C(NCCc1ccc(F)cc1)[C@@H]1CN(C(=O)[C@@H]2CCC[C@@H](C(=O)N3C[C@@H](C(=O)NCCc4ccc(F)cc4)[C@H](C(=O)NCCc4ccc(F)cc4)C3)C2)C[C@H]1C(=O)NCCc1ccc(F)cc1 [Compound 106, (3S,3′S,4S,4′S)-1,1′-((1R,3R)-Cyclohexane-1,3-dicarbonyl)bis(N^3,N^4-bis(4-fluorophenethyl)-pyrrolidine-3,4-dicarboxamide)]	–
> 5000	> 5000	–	–	O=C(NCCc1ccc(F)cc1)[C@@H]1CN(C(=O)[C@H]2CC[C@H](C(=O)N3C[C@@H](C(=O)NCCc4ccc(F)cc4)[C@H](C(=O)NCCc4ccc(F)cc4)C3)CC2)C[C@H]1C(=O)NCCc1ccc(F)cc1 [Compound 107, (3S,3′S,4S,4′S)-1,1′-((1S,4S)-Cyclohexane-1,4-dicarbonyl)bis(N^3,N^4-bis(4-fluorophenethyl)-pyrrolidine-3,4-dicarboxamide)]	–
> 5000	> 5000	–	–	O=C(NCCc1ccc(F)cc1)[C@@H]1CN(C(=O)[C@H]2CC[C@@H](C(=O)N3C[C@@H](C(=O)NCCc4ccc(F)cc4)[C@H](C(=O)NCCc4ccc(F)cc4)C3)CC2)C[C@H]1C(=O)NCCc1ccc(F)cc1 [Compound 108, (3S,3′S,4S,4′S)-1,1′-((1R,4R)-Cyclohexane-1,4-dicarbonyl)bis(N^3,N^4-bis(4-fluorophenethyl)-pyrrolidine-3,4-dicarboxamide)]	–
> 5000	> 5000	–	–	O=C(NCCc1ccc(F)cc1)[C@@H]1CN(C(=O)c2ccc3cc(C(=O)N4C[C@@H](C(=O)NCCc5ccc(F)cc5)[C@H](C(=O)NCCc5ccc(F)cc5)C4)ccc3c2)C[C@H]1C(=O)NCCc1ccc(F)cc1 [Compound 109, (3S,3′S,4S,4′S)-1,1′-(Naphthalene-2,6-dicarbonyl)-bis(N^3,N^4-bis(4-fluorophenethyl)-pyrrolidine-3,4-dicarboxamide)]	–
130	> 5000	–	–	O=C(NCCc1ccc(F)cc1)[C@@H]1CN(C(=O)c2ccc(C(=O)N3C[C@@H](C(=O)NCCc4ccc(F)cc4)[C@H](C(=O)NCCc4ccc(F)cc4)C3)c(O)c2)C[C@H]1C(=O)NCCc1ccc(F)cc1 [Compound 110, (3S,3′S,4S,4′S)-1,1′-(2-Hydroxy-terephthaloyl)-bis(N^3,N^4-bis(4-fluorophenethyl)-pyrrolidine-3,4-dicarboxamide)]	–
–	–	–	–	O=C(NCCc1ccc(F)cc1)[C@@H]1CN(C(=O)c2ccc(C(=O)N3C[C@@H](C(=O)N[C@H]4C[C@@H]4c4ccccc4)[C@H](C(=O)N[C@H]4C[C@@H]4c4ccccc4)C3)cc2)C[C@H]1C(=O)NCCc1ccc(F)cc1 [Compound 114, (3S,4S)-1-(4-((3S,4S)-3,4-Bis(((1S,2R)-2-phenylcyclopropyl)carbamoyl)-pyrrolidine-1-carbonyl)benzoyl)—N^3,N^4-bis(4-fluorophenethyl)-pyrrolidine-3,4-dicarboxamide]	activity in stimulating TNF-α release from human THP-1 cells (in words) ([1]; tested up to 5 μM where stated): active; activity in stimulating TNF-α release from mouse macrophages (in words) (mouse macrophages): active
–	–	–	–	O=C(NCCc1ccc(F)cc1)[C@H]1CN(C(=O)c2ccc(C(=O)N3C[C@@H](C(=O)N[C@H]4C[C@@H]4c4ccccc4)[C@H](C(=O)N[C@H]4C[C@@H]4c4ccccc4)C3)cc2)C[C@@H]1C(=O)NCCc1ccc(F)cc1 [Compound 115]	fold less active than 114 in human THP-1 cells ([1]; human THP-1 cells): 5 fold; activity in stimulating TNF-α release from mouse macrophages (in words) (mouse macrophages): inactive
–	–	–	–	O=C(NC1C[C@@H]1c1ccc(F)cc1)[C@@H]1CN(C(=O)c2ccc(C(=O)N3C[C@@H](C(=O)NC4C[C@@H]4c4ccc(F)cc4)[C@H](C(=O)NC4C[C@@H]4c4ccc(F)cc4)C3)cc2)C[C@H]1C(=O)NC1C[C@@H]1c1ccc(F)cc1 (stereo partly drawn) [Compound 118, (3S,3′S,4S,4′S)-1,1′-Terephthaloyl-bis(N^3,N^4-bis-((1S,2R)-2-(4-fluorophenyl)cyclopropyl)pyrrolidine-3,4-dicarboxamide)]	EC50 ([1]; Homo sapiens, THP-1, running text, read-out: EC50, stimulated release of TNF-α from differentiated human THP-1 cells): 0.13 nM; EC50 (mouse macrophages; Mus musculus, Macrophage, read-out: EC50, stimulated release of TNF-α from mouse macrophages): 1.2 nM
–	–	> 5000	–	CCCCCCCCCCCCCCCCNC(=O)[C@@H]1CCN(C(=O)c2ccc(C(=O)N3C[C@@H](C(=O)N[C@H]4C[C@@H]4c4ccccc4)[C@H](C(=O)N[C@H]4C[C@@H]4c4ccccc4)C3)cc2)C1 [Compound 125, (3S,4S)-1-(4-((R)-3-(Hexadecylcarbamoyl)-pyrrolidine-1-carbonyl)benzoyl)-N^3,N^4-bis((1S,2R)-2-phenylcyclopropyl)pyrrolidine-3,4-dicarboxamide]	EC50 ([1]; table of 125-132 (one lipid side chain, R and S), human THP-1 cells, read-out: EC50 (nM) (THP-1)): 15 nM
–	–	260	2	CCCCCCCCCCCCCCNC(=O)[C@@H]1CCN(C(=O)c2ccc(C(=O)N3C[C@@H](C(=O)N[C@H]4C[C@@H]4c4ccccc4)[C@H](C(=O)N[C@H]4C[C@@H]4c4ccccc4)C3)cc2)C1 [Compound 126, (3S,4S)—N^3,N^4-Bis((1S,2R)-2-phenylcyclopropyl)-1-(4-((R)-3-(tetradecylcarbamoyl)pyrrolidine-1-carbonyl)benzoyl)pyrrolidine-3,4-dicarboxamide]	–
–	–	700	9	CCCCCCCCCCCCNC(=O)[C@@H]1CCN(C(=O)c2ccc(C(=O)N3C[C@@H](C(=O)N[C@H]4C[C@@H]4c4ccccc4)[C@H](C(=O)N[C@H]4C[C@@H]4c4ccccc4)C3)cc2)C1 [Compound 127, (3S,4S)-1-(4-((R)-3-(Dodecylcarbamoyl)-pyrrolidine-1-carbonyl)benzoyl)—N^3,N^4-bis((1S,2R)-2-phenylcyclopropyl)pyrrolidine-3,4-dicarboxamide]	–
–	–	2400	210	CCCCCCCCCCNC(=O)[C@@H]1CCN(C(=O)c2ccc(C(=O)N3C[C@@H](C(=O)N[C@H]4C[C@@H]4c4ccccc4)[C@H](C(=O)N[C@H]4C[C@@H]4c4ccccc4)C3)cc2)C1 [Compound 128, (3S,4S)-1-(4-((R)-3-(Decylcarbamoyl)pyrrolidine-1-carbonyl)benzoyl)—N^3,N^4-bis((1S,2R)-2-phenyl-cyclopropyl)pyrrolidine-3,4-dicarboxamide]	–
–	–	240	4	CCCCCCCCCCCCCCNC(=O)[C@H]1CCN(C(=O)c2ccc(C(=O)N3C[C@@H](C(=O)N[C@H]4C[C@@H]4c4ccccc4)[C@H](C(=O)N[C@H]4C[C@@H]4c4ccccc4)C3)cc2)C1 [Compound 130, (3S,4S)—N^3,N^4-Bis((1S,2R)-2-phenylcyclopropyl)-1-(4-((S)-3-(tetradecylcarbamoyl)pyrrolidine-1-carbonyl)benzoyl)pyrrolidine-3,4-dicarboxamide]	–
–	–	1000	4	CCCCCCCCCCCCNC(=O)[C@H]1CCN(C(=O)c2ccc(C(=O)N3C[C@@H](C(=O)N[C@H]4C[C@@H]4c4ccccc4)[C@H](C(=O)N[C@H]4C[C@@H]4c4ccccc4)C3)cc2)C1 [Compound 131, (3S,4S)-1-(4-((S)-3-(Dodecylcarbamoyl)-pyrrolidine-1-carbonyl)benzoyl)—N^3,N^4-bis((1S,2R)-2-phenylcyclopropyl)pyrrolidine-3,4-dicarboxamide]	–
–	–	1800	33	CCCCCCCCCCNC(=O)[C@H]1CCN(C(=O)c2ccc(C(=O)N3C[C@@H](C(=O)N[C@H]4C[C@@H]4c4ccccc4)[C@H](C(=O)N[C@H]4C[C@@H]4c4ccccc4)C3)cc2)C1 [Compound 132, (3S,4S)-1-(4-((S)-3-(Decylcarbamoyl)pyrrolidine-1-carbonyl)benzoyl)—N^3,N^4-bis((1S,2R)-2-phenyl-cyclopropyl)pyrrolidine-3,4-dicarboxamide]	–
